According to patent US11331333B2, “Treatment of aberrant fibroblast proliferation” (Georg August Universitaet Goettingen Stiftung Oeffentlichen …, priority 2019, dated 2022):

Test system: EYA1A^tg mice challenged with UUO
Test: Unilateral ureteral obstruction (UUO) kidney fibrosis in EYA1A^tg mice
Format: in vivo, mouse
Conditions: Na3VO4 8 mg/kg or caffeine 12.5 mg/kg i.p. once per day; EYA1Atg mice, UUO
Description: From 3 days before surgery, C57BL/6 (referred as wildtype) or transgenic mice overexpressing human splice variants EYA1A (rtTACMV;hEYA1A-pTreTight, referred to as EYA1A^tg) and EYA1C (rtTACMV;hEYA1C-pTreTight, referred to as EYA1C^tg) were treated with either vehicle buffer (glucose 5%) or DOX (2 mg/ml, Sigma, St. Louis, USA) within drinking water ad libidum and renewal every 2 days.
Mice were anesthetized with isoflurane inhalation (2-3%), analgesia was performed by subcutaneous injection of 0.1 mg/kg body weight per day Buprenorphine. The ureter was separated from the surrounding tissues and two ligatures were placed about 5 mm apart in upper two-thirds of the left ureter to obtain reliable obstruction. Mice were sacrificed 3, 7 or 10 days after ureteral obstruction for further analyses.
Mice were injected intraperitoneally with Na3VO4 (8 mg/kg i.p. once per day, Sigma, St. Louis, USA) or caffeine (12.5 mg/kg i.p. once per day, Sigma, St. Louis, USA) starting one day prior of surgery, control mice received equivalent volume of PBS or DMSO.
Mice were injected intraperitoneally with SCR7 (20 mg/kg i.p. every alternate day, Sigma, St. Louis, USA) starting one day prior of surgery, control mice received equivalent volume of DMSO.
The inventors obtained 25 nucleotide antisense morpholino sequences (Gene Tools, Philomath, USA). The in vivo morpholinos contain a covalently linked octaguanidine dendrimer as a delivery moiety to facilitate entry into cells in vivo. Mice were injected intraperitoneally with 12.5 mg/kg body weight in vivo morpholinos in saline at a final volume of 100 μL every other day starting two days prior of surgery. A control in vivo
Lentiviral pLenti-Sce1 was produced in 293T virus packaging cells after transfection using morpholino that targets a human β-globin intron mutation was used as standard control. In vivo morpholino sequences are those of SEQ ID NOs: 9 (EYA1A-VMO), 10 (53Bp1-VMO) and 16 (control).
Formalin-fixed, paraffin-embedded kidneys and hearts from mice, and HOPE-fixed, paraffin-embedded human specimens were sectioned at 3 μm, Masson's Trichrome Stain (MTS) was performed at the University Medicine Göttingen. For morphometric analysis of interstitial fibrosis in mice and human biopsies, we assessed the fibrotic area using cellSens (Olympus, Tokyo, Japan) software. Ten visual fields were selected randomly for each MTS stained section at 200× magnification and the relative interstitial fibrotic area was evaluated by using a 10 mm^2 graticule.
Formalin-fixed, paraffin-embedded kidney sections from mice as well as from HOPE-fixed, paraffin-embedded human specimens were deparaffinized in xylene and rehydrated in ethanol containing distilled water. For immunofluorescent staining, EYA1 isoform antisera or primary antibodies against αSMA (A5228, Sigma, St. Louis, USA), Collagen-1 (ab34710, Abcam Biochemicals, Cambridge, UK), γH2A.X^pS139 (ab2893, Abcam Biochemicals, Cambridge, UK), γH2A.X^pS139 (05-636, Merck Millipore, Billerica, UK), γH2A.X^pY142 (ab94602, Abcam Biochemicals, Cambridge, UK), p-Chk1^pS317 (12302P, Cell Signaling, Danvers, USA), p-Chk2^pT68 (2197S, Cell Signaling, Danvers, USA), Rpa1 (2267S, Cell Signaling, Danvers, USA), Rad51 (sc-8349, Santa Cruz Biotechnology, Dallas, USA), 53Bp1 (sc-22760, Santa Cruz Biotechnology, Dallas, USA), Xrcc4 (sc-8285, Santa Cruz Biotechnology, Dallas, USA) and GFP (MA5-15256, Thermo Fisher Scientific, Waltham, USA) were used, secondary antibodies were labeled with Alexa Fluor 488, 594 or 647 (Life Technologies, Carlsbad, USA). Renal basement membranes were stained with antibodies against Collagen-4 (1340-30, SouthernBiotech, Birmingham, USA). Nuclear staining was performed using 4′,6-diamidino-2-phenylindole (DAPI, Vector Laboratories, Burlingame, USA). Quantifications were performed per high power field at 400× magnification, representative confocal pictures using an LSM 780 confocal laser scanning microscope (Zeiss, Oberkochen, Germany) are shown.

| Structure (SMILES) | impact of EYA1A overexpression on renal fibrogenesis | γH2A.X^pY142 dephosphorylation |
| --- | --- | --- |
| Cn1c(=O)c2c(ncn2C)n(C)c1=O [caffeine] | reversed the enhancing impact | effectively blocked |
| [Na+].[Na+].[Na+].[O]=[V]([O-])([O-])[O-] [Na3VO4, sodium orthovanadate] | reversed the enhancing impact | effectively blocked |
